Tests used:
[1] = molecular target: T1, human topo I (Homo sapiens, UniProt P11387); test: Topo I-mediated plasmid-nicking assay; type: biochemical; conditions: 20 and 100 μg/ml
T1 construct: purchased Topogen (Columbus, Ohio)
T1 sequence (P11387 1-765): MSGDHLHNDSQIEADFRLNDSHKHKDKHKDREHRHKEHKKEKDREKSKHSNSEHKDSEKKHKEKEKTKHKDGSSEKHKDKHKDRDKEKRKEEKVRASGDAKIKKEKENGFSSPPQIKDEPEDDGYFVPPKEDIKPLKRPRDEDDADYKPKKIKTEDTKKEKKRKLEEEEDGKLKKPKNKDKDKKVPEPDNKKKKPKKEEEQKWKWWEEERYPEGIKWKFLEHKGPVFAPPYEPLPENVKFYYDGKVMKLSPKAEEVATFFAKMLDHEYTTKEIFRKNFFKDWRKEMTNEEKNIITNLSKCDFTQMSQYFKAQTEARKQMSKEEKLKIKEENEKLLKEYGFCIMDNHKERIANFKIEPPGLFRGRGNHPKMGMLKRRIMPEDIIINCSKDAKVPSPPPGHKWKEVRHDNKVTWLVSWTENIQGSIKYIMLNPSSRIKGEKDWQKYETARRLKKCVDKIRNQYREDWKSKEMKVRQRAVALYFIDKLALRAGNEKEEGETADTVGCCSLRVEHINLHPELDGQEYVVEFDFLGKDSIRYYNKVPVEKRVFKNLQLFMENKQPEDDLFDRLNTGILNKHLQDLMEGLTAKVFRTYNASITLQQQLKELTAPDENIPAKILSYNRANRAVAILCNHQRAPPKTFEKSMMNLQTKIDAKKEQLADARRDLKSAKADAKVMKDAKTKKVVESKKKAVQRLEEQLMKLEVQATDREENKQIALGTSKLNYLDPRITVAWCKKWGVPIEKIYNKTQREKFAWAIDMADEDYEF
Description: Single-strand DNA breakage was determined by converting relaxed (REL) or supercoiled (SC) pUC8 DNA to the nicked form (NIC).
Under the electrophoretic conditions that were used in the experiment shown in FIG. 4, covalently closed circular (supercoiled or relaxed) plasmid DNA migrates on the bottom of the gel. In the presence of a topo I poison that stabilises the cleavable complex, and following denaturation and degradation of the enzyme with proteinase K/SDS, the resulting nicked DNA migrates on the top of the gel.
Topo I poisons enhance topo I-mediated pUC8 DNA cleavage under the reaction conditions provided by the supplier of the enzyme (Topogen, Inc.). Briefly, 20 μl of reaction mixtures contained 10 mM Tris-HCl, pH 7.5, 1 mM EDTA, 100 mM NaCl, 1 μl of the test agent (or solvent), 0.5 μg of pUC8, and 10 units of human topo I (added last). After a 30-min incubation at 37° C., SDS-proteinase K was added, and, following a 30-min incubation at 37° C., samples were extracted with CHCl3-isopropanol and electrophoresed on a 1% agarose gel containing 0.5 μg/ml ethidium bromide. Gels were photographed, and photographic negatives were scanned.

[2] = system: E selectin; test: E selectin expression assay on endothelial cells (FACS); type: cell-based, human; conditions: 10 μg/ml 18 hours prior to stimulation; TNF and IL-1
Description: (§1) E selectin and VCAM-1 assays: HUVEC were plated at 5×10^5 cells per 6 well dish. Cells were treated with DMSO vehicle or De (10 μg/ml final) for 18 hours prior to TNFα (1 ng/ml) addition. After 4 or 18 hours, cells were washed with PBS and incubated with antibodies against E selectin (Mab49-1B11) or VCAM-1 (Nab51-10C9) for 30 min. Goat F(ab′)2 fragment mouse-IgG(H+L)-FITC antibody (Immunotech, Marseille, France) was then added for 30 min. The cells were then trypsinised and FACS analysed on a Coulter Epics® XL-MCL (Beckman Coulter). Results are expressed as arbitrary units relating to the mean intensity of FITC fluorescence.

[3] = system: VCAM-1; test: VCAM-1 expression assay on endothelial cells (FACS); type: cell-based, human; conditions: 10 μg/ml 18 hours prior to stimulation; TNF and IL-1
Description: as §1

[4] = system: human cervical carcinoma (HeLa); test: HeLa cell apoptosis; type: cell-based; conditions: 10 μm
[5] = system: Human umbilical vein endothelial cells (HUVEC); test: In vitro capillary tube formation assay in collagen gel; type: cell-based; conditions: 10 μg/ml, PMA and RMACII present
Description: In vitro tube assay: Capillary tube formation in a collagen gel was performed essentially as described by Gamble et al^30,31. Tubes were formed in the presence of the tumour promoter phorbol myristate acetate (PMA) and the anti β1 integrin antibody RMACII. De (10 μg/ml final) was added at the time of plating the cells onto the gel.

SMILES: Oc1ccc(C2=Cc3ccc(O)cc3OC2)cc1 [Dehydroequol, 4′,7-dihydroxyisoflav-3-ene]
- topo I-mediated single-strand DNA breakage (nicked DNA) [1]: failed to produce nicked DNA
- induction of E selectin on the endothelium [2]: inhibits the induction
- induction of VCAM-1 on the endothelium [3]: inhibits the induction
- apoptosis of HeLa cells [4]: leading to HeLa cell apoptosis
- inhibition of capillary tube formation [5]: inhibits
